Laboratory results from publication PMC12054364, “Structure of the Fab fragment of a humanized 5E5 antibody to a cancer-specific Tn-MUC1 epitope” (Acta Crystallographica Section D: Structural Biology, 2025).
Ends that are not written are not given here. * marks the point of attachment. αGalNAc = CC(=O)N[C@@H]1[C@@H](O)[C@@H](O)[C@@H](CO)O[C@@H]1*

What was measured:
[1] = target: h-5E5 Fab; assay: SPR binding of doubly glycosylated Tn-MUC1 peptides to immobilized h-5E5 Fab; set-up: species or system humanized
Description: (§1) The binding kinetics of the h-5E5 Fab to doubly glycosylated Tn-MUC1 peptides were studied by surface plasmon resonance (SPR) using a Biacore T200 instrument (GE Healthcare). All experiments were performed at 25°C with HBS-EP (10 mM HEPES, 150 mM NaCl, 3 mM EDTA, 0.005% Tween 20 pH 7.4) as the running buffer. The purified h-5E5 Fab and an irrelevant 1104 Fab were immobilized [∼10 000 resonance units (RUs) each] on a Series S Sensor Chip CM7 (Cytiva) using an amine-coupling kit (Cytiva) in 10 mM acetate buffer pH 4.0 (Cytiva). Serial dilutions of doubly glycosylated Tn-MUC1 peptides in HBS-EP buffer were injected at a flow rate of 20 µl min^−1 over flow cells containing immobilized h-5E5 Fab and the 1104 Fab (as a negative control). The reference flow cell was blocked with ethanolamine. The association time was set to 30 s and the dissociation time to 60 s. After each run, the sensor chip was regenerated with HBS-EP buffer. The concentrations of the analytes injected were 6.25, 12.5, 25, 50 and 100 µM. The analytes were two doubly glycosylated Tn-MUC1 peptides, PAPGS*T*AP and APGS*T*AP, where * represents GalNAc. Reference flow cell subtracted sensorgrams were analyzed with BIAevaluation Software v.3.2 (Cytiva) and affinities were determined by steady-state analysis from three experimental replicates. PAPGS*T*AP binding to amine-coupled 5E5 mAb (∼25 000 RUs) was determined under the same conditions described for the Fab.

[2] = target: h-5E5 mAb; assay: SPR binding of PAPGS*T*AP to immobilized h-5E5 mAb; set-up: species or system humanized; details: amine-coupled mAb (∼25 000 RU), same conditions as for the Fab, steady-state
Description: as §1, with “The analytes were two doubly glycosylated Tn-MUC1 peptides, PAPGS*T*AP and APGS*T*AP, where * represents GalNAc.” left out

[3] = system: 1104 Fab; assay: SPR negative control: glycopeptides over immobilized irrelevant 1104 Fab; format: binding; details: amine-coupled Fab 1104 (∼10 000 RU), peptide 6.25-100 µM, HBS-EP pH 7.4, 25°C
Description: as §1, with “The analytes were two doubly glycosylated Tn-MUC1 peptides, PAPGS*T*AP and APGS*T*AP, where * represents GalNAc.” left out

[4] = target: Fab fragment of the humanized 5E5 antibody (h-5E5 Fab) (humanized from mouse | human) (UniProt P01834); assay: SPR; Biacore T200; h-5E5 Fab amine-coupled (~10 000 RU) on a CM7 chip; glycopeptides flowed at 6.25-100 µM, 20 µl/min; 25°C; HBS-EP (10 mM HEPES, 150 mM NaCl, 3 mM EDTA, 0.005% Tween 20 pH 7.4); steady-state analysis, three replicates
[5] = target: humanized 5E5 monoclonal antibody (h-5E5 mAb) (humanized from mouse | human) (UniProt P01834); assay: SPR; 5E5 mAb amine-coupled (~25 000 RU); PAPGS*T*AP flowed; same conditions as for the Fab (25°C, HBS-EP); steady-state analysis
[6] = immobilized h-5E5 Fab, HBS-EP pH 7.4, 25°C

| Molecule | Kd ([1]; Biacore T200, 25°C, HBS-EP (10 mM HEPES, 150 mM NaCl, 3 mM EDTA, 0.005% Tween 20 pH 7.4), Fab amine-coupled ∼10 000 RU on CM7 chip, peptide 6.25-100 µM, 20 µl/min, association 30 s, dissociation 60 s, steady-state analysis, three experimental replicates) [µM] | observed Rmax [1, 6] [RU] | observed Rmax as % of the theoretical Rmax [1, 6] [%] | Kd [2] [µM] | binding to control surface [3] | Kd [4] [µM] | Kd [5] [µM] |
| --- | --- | --- | --- | --- | --- | --- | --- |
| PAPGS*T*AP [doubly glycosylated Tn-MUC1 peptide, where * represents GalNAc] | 40.7 ± 0.1 | 165 | 70 | 43.9 | Neither glycopeptide bound to the control surface | – | – |
| APGS(αGalNAc)T(αGalNAc)AP [doubly glycosylated Tn-MUC1 peptide APGS*T*AP] | – | – | – | – | – | 60.9 | – |
| PAPGS(αGalNAc)T(αGalNAc)AP [doubly glycosylated Tn-MUC1 peptide PAPGS*T*AP] | – | – | – | – | – | 40.7 | 43.9 |
